Test results: US8247211B2, “Glycopeptide antibiotics” (American Cyanamid Company, priority 2001, dated 2012)
Converted amounts (≈) assume the structure as drawn.

Key:
Assay in all cases: In vitro antibacterial evaluation: minimum inhibitory concentration (MIC), broth dilution method
Format in all cases: cell-based
Enterococcus sp. = test system: Enterococcus sp.
Method: (§1) The minimum inhibitory concentration (MIC), the lowest concentration of the antibiotic which inhibits growth of the test organism, is determined by the broth dilution method using Muller-Hinton II […] (Baltimore Biological Laboratories) following the recommendations of the National Committee for Clinical Laboratory Standards [Methods for dilution antimicrobial susceptibility tests for bacteria that grow aerobically, approved standard M7-A2, National Committee for Clinical Laboratory Standards, Villanova, Pa].
(§2) An inoculum level of 5×10^5 CFU/mL, and a range of antibiotic concentrations (64-0.06 μg/mL) is used. […] The test organisms include a spectrum of Gram-positive bacteria comprised of Staphylococcus sp., Streptococcus sp. and Enterococcus sp. These organisms include recent clinical isolates that are resistant to methicillin, penicillin and/or vancomycin.

Escherichia coli = test system: Escherichia coli
Method: as §1, §2

Staphylococcus sp. = conditions: broth dilution, 18 hours at 35° C.
Method: as §1, §2

Streptococcus sp. = test system: Streptococcus sp.
Method: as §1, §2

MIC Enterococcus faecalis (ATCC 29212) (Enterococcus sp.; strain ATCC 29212): 32 µg/mL (≈ 22 µM)
MIC Enterococcus faecalis (GC 2242) (Enterococcus sp.; strain GC 2242): 32 µg/mL (≈ 22 µM)
MIC Enterococcus faecium (GC 2243) (Enterococcus sp.; strain GC 2243): 32 µg/mL (≈ 22 µM)
MIC Enterococcus faecalis (GC 2691) (Enterococcus sp.; strain GC 2691): 32 µg/mL (≈ 22 µM)
MIC Enterococcus faecalis (GC 3059) (Enterococcus sp.; strain GC 3059): 32 µg/mL (≈ 22 µM)
MIC Enterococcus faecalis (GC 4552) (Enterococcus sp.; strain GC 4552): 32 µg/mL (≈ 22 µM)
MIC Enterococcus faecalis (GC 4553) (Enterococcus sp.; strain GC 4553): 64 µg/mL (≈ 43.9 µM)
MIC Enterococcus faecalis (GC 4554) (Enterococcus sp.; strain GC 4554): 32 µg/mL (≈ 22 µM)
MIC Enterococcus faecium (GC 4556) (Enterococcus sp.; strain GC 4556): 32 µg/mL (≈ 22 µM)
MIC Enterococcus faecium (GC 4557) (Enterococcus sp.; strain GC 4557): 16 µg/mL (≈ 11 µM)
MIC Enterococcus avium (GC 4558) (Enterococcus sp.; strain GC 4558): 32 µg/mL (≈ 22 µM)
MIC Enterococcus faecalis (GC 6189) (Enterococcus sp.; strain GC 6189): 32 µg/mL (≈ 22 µM)
MIC Escherichia coli (ATCC 25922) (Escherichia coli; strain ATCC 25922): >64 µg/mL
MIC Escherichia coli (GC 4559) (Escherichia coli; strain GC 4559): >64 µg/mL
MIC Escherichi coli (GC 4560) (Escherichia coli; strain GC 4560): 8 µg/mL (≈ 5.49 µM)
MIC Coagulase Negative Staphylococcus (GC 4547) (Staphylococcus sp.; 5×10^5 CFU/mL): 8 µg/mL (≈ 5.49 µM)
MIC Coagulase Negative Staphylococcus (GC 4548) (Staphylococcus sp.; 5×10^5 CFU/mL): 8 µg/mL (≈ 5.49 µM)
MIC Coagulase Negative Staphylococcus (GC 4549) (Staphylococcus sp.; 5×10^5 CFU/mL): 8 µg/mL (≈ 5.49 µM)
MIC Coagulase Negative Staphylococcus (GC 4551) (Staphylococcus sp.; 5×10^5 CFU/mL): 16 µg/mL (≈ 11 µM)
MIC Coagulase Negative Staphylococcus (GC 6257) (Staphylococcus sp.; 5×10^5 CFU/mL): 8 µg/mL (≈ 5.49 µM)
MIC Staphylococcus aureus (ATCC 29213) (Staphylococcus sp.; 5×10^5 CFU/mL): 16 µg/mL (≈ 11 µM)
MIC Staphylococcus aureus (GC 1131) (Staphylococcus sp.; 5×10^5 CFU/mL): 16 µg/mL (≈ 11 µM)
MIC Staphylococcus aureus (GC 3051) (Staphylococcus sp.; 5×10^5 CFU/mL): 16 µg/mL (≈ 11 µM)
MIC Staphylococcus aureus (GC 3053) (Staphylococcus sp.; 5×10^5 CFU/mL): 32 µg/mL (≈ 22 µM)
MIC Staphylococcus aureus (GC 4541) (Staphylococcus sp.; 5×10^5 CFU/mL): 16 µg/mL (≈ 11 µM)
MIC Staphylococcus aureus (GC 4542) (Staphylococcus sp.; 5×10^5 CFU/mL): 16 µg/mL (≈ 11 µM)
MIC Staphylococcus aureus (GC 4544) (Staphylococcus sp.; 5×10^5 CFU/mL): 16 µg/mL (≈ 11 µM)
MIC Staphylococcus aureus (GC 4545) (Staphylococcus sp.; 5×10^5 CFU/mL): 8 µg/mL (≈ 5.49 µM)
MIC Staphylococcus aureus-SMITH (GC 4543) (Staphylococcus sp.; 5×10^5 CFU/mL): 8 µg/mL (≈ 5.49 µM)
MIC Staphylococcus aureus (ATCC 29213) (Staphylococcus sp.; strain ATCC 29213): 16 µg/mL (≈ 11 µM)
MIC Staphylococcus aureus (GC 1131) (Staphylococcus sp.; strain GC 1131): 16 µg/mL (≈ 11 µM)
MIC Staphylococcus aureus (GC 3051) (Staphylococcus sp.; strain GC 3051): 16 µg/mL (≈ 11 µM)
MIC Staphylococcus aureus (GC 3053) (Staphylococcus sp.; strain GC 3053): 32 µg/mL (≈ 22 µM)
MIC Staphylococcus aureus (GC 4541) (Staphylococcus sp.; strain GC 4541): 16 µg/mL (≈ 11 µM)
MIC Staphylococcus aureus (GC 4542) (Staphylococcus sp.; strain GC 4542): 16 µg/mL (≈ 11 µM)
MIC Staphylococcus aureus-SMITH (GC 4543) (Staphylococcus sp.; strain GC 4543): 8 µg/mL (≈ 5.49 µM)
MIC Staphylococcus aureus (GC 4544) (Staphylococcus sp.; strain GC 4544): 16 µg/mL (≈ 11 µM)
MIC Staphylococcus aureus (GC 4545) (Staphylococcus sp.; strain GC 4545): 8 µg/mL (≈ 5.49 µM)
MIC Coagulase Negative Staphylococcus (GC 4547) (Staphylococcus sp.; strain GC 4547): 8 µg/mL (≈ 5.49 µM)
MIC Coagulase Negative Staphylococcus (GC 4548) (Staphylococcus sp.; strain GC 4548): 8 µg/mL (≈ 5.49 µM)
MIC Coagulase Negative Staphylococcus (GC 4549) (Staphylococcus sp.; strain GC 4549): 8 µg/mL (≈ 5.49 µM)
MIC Coagulase Negative Staphylococcus (GC 4551) (Staphylococcus sp.; strain GC 4551): 16 µg/mL (≈ 11 µM)
MIC Coagulase Negative Staphylococcus (GC 6257) (Staphylococcus sp.; strain GC 6257): 8 µg/mL (≈ 5.49 µM)
MIC Streptococcus pneumoniae (ATCC 6301) (Streptococcus sp.; strain ATCC 6301): 2 µg/mL (≈ 1.37 µM)
MIC Streptococcus pneumoniae (GC 1894) (Streptococcus sp.; strain GC 1894): 0.5 µg/mL (≈ 0.343 µM)
MIC Streptococcus pyogenes (GC 4563) (Streptococcus sp.; strain GC 4563): 4 µg/mL (≈ 2.74 µM)
MIC Streptococcus agalactiae (GC 4564) (Streptococcus sp.; strain GC 4564): 8 µg/mL (≈ 5.49 µM)
MIC Streptococcus pneumoniae (GC 4565) (Streptococcus sp.; strain GC 4565): 2 µg/mL (≈ 1.37 µM)
SMILES: CCOc1cc(C2OCC3OC(OC4C(CO)OC(Oc5ccc(CC6NC(=O)C(C(C)c7ccccc7)NC(=O)CNC(=O)C(CO)NC(=O)C(C(O)C7CNC(=N)N7C7OC(CO)C(O)C(O)C7O)NC(=O)C(C(O)C7CNC(=N)N7)NC6=O)cc5)C(O)C4O)C(O)C(O)C3O2)ccc1OC (stereo not drawn) [Example 152, Cyclo[glycyl-β-methylphenylalanyl-O-[4-O-[4,6-O-(3-ethoxy-4-methoxybenzylidene)hexopyranosyl)hexopyranosyl]tyrosyl-3-(2-iminoimidazolidin-4-yl)seryl-3-(3-hexopyranosyl-2-iminoimidazolidin-4-yl)serylseryl]]
MIC Staphylococcus haemolyticus (GC 4546) (Staphylococcus sp.; 5×10^5 CFU/mL): 8 µg/mL (≈ 5.49 µM)
MIC Staphylococcus haemolyticus (GC 4546) (Staphylococcus sp.; strain GC 4546): 8 µg/mL (≈ 5.49 µM)
